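Compound exposure: 48 hours, 5 concentrations, 96-well plates. GI50 = concentration required for 50% inhibition of growth. TGI is the concentration that stops growth completely.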

The first experiment concerns M14 melanoma. Description: NCI tumour cell line growth inhibition, 48 h.
With `Cc1ccc2[nH]c(C(=O)NN3C(=O)CSC34CCCCC4C)c(-c3ccccc3)c2c1` (stereo not drawn), the GI50 was 19.5 µM and the TGI was found to be 37.7 µM.

`CCN=C1C=CC(=C(c2ccc(N(C)C)cc2)c2ccc(N(C)C)cc2)c2ccccc21`: the GI50 is 0.107 µM and the TGI turned out to be 0.372 µM.

As to `CN(C)CCCNC(=O)c1cc(NC(=O)CCNS(=O)(=O)c2ccc3c(c2)C(=O)c2ccccc2C3=O)cn1C`, the GI50 is over 100 µM and the TGI was over 100 µM.

Consider `CCc1c(C)[nH]c(/C=C2\N=C(c3ccc[nH]3)C=C2OC)c1C`, for which the GI50 is 0.256 µM and the TGI stood at 2.99 µM.

Take `CC(=O)OC1c2ccccc2CC2(OC(C)=O)c3ccccc3C12` (stereo not drawn): the TGI is over 100 µM.

As for `Nc1nc(/C=C\c2ccc([N+](=O)[O-])o2)nc(N2CCN(c3ccccc3)CC2)n1`, the GI50 is 4.01 µM and the TGI was found to be 26.7 µM.

Turning to `COc1ccc2c(c1)CCC1C2CCC2(C)C1CCC2(O)CNC(=O)CCCCC1CCSS1` (stereo not drawn), the GI50 is 20.8 µM and the TGI was over 100 µM.

Regarding `CC12CCC(=O)C(O1)C1C(=O)c3cc4ccccc4cc3C(=O)C12` (stereo not drawn), the GI50 was 21.5 µM and the TGI was found to be 53.3 µM.

As for `CC1(C)CCC2(C(=O)OC3OC(CO)C(O)C(O)C3O)CC[C@]3(C)C(=CCC4C5(C)CC[C@H](OC6OC(C(=O)O)C(O)C(O)C6O)C(C)(C)C5CCC43C)C2C1` (stereo partly drawn), the GI50 was 1.47 µM and the TGI was 4.33 µM.

For the compound `CN(C)c1ccc2nc3ccc(=[N+](C)C)cc-3oc2c1`, the GI50 is 0.959 µM and the TGI worked out at 3.77 µM.

Consider `O=S(=O)(c1ccc(NC(=S)NCc2cccnc2)cc1)N1CCCCC1`, for which the GI50 is 3.9 µM and the TGI is over 100 µM.

Turning to `COc1cccc(C2=C(c3cn(C)c4ccccc34)C(=O)NC2=O)c1`, the GI50 is 18.9 µM and the TGI is over 25 µM.

With `C=C1C(=O)O[C@@H]2C1CC(=O)C(C)CC/C=C(\C)CCC[C@H](C)[C@H]2OC(C)=O` (stereo partly drawn), the GI50 was 4.24 µM and the TGI came to 16 µM.

Turning to `N#CC(C#N)=Cc1ccc(-c2ccc(-c3nc4ccccc4s3)cc2)o1`, the GI50 was over 100 µM and the TGI was over 100 µM.

As for `O=C1C(Cl)=C(N/N=c2/[nH][nH]/c(=N/NC3=C(Cl)C(=O)c4ccccc4C3=O)c3ccccc23)C(=O)c2ccccc21`, the GI50 was 16.9 µM and the TGI came out at 34.8 µM.

A further experiment has as its system SR leukemia. Description: NCI tumour cell line growth inhibition, 48 h.
As for `CCCN(Cc1ccc(F)cc1)c1ccc(CO)c(Cl)c1`, the GI50 was 13.6 µM and the TGI was determined as 35.4 µM.

Turning to `CCN=C1C=CC(=C(c2ccc(N(C)C)cc2)c2ccc(N(C)C)cc2)c2ccccc21`, the GI50 was 0.0846 µM and the TGI was 0.572 µM.

For `CN(C)CCCNC(=O)c1cc(NC(=O)CCNS(=O)(=O)c2ccc3c(c2)C(=O)c2ccccc2C3=O)cn1C`, the GI50 is over 100 µM and the TGI was over 100 µM.

The compound `CC(=O)OC1c2ccccc2CC2(OC(C)=O)c3ccccc3C12` (stereo not drawn) displayed a TGI of over 100 µM.

Take `Nc1nc(/C=C\c2ccc([N+](=O)[O-])o2)nc(N2CCN(c3ccccc3)CC2)n1`: the GI50 is 3.59 µM and the TGI turned out to be 83 µM.

Take `CN(C)c1ccc2nc3ccc(=[N+](C)C)cc-3oc2c1`: the GI50 is 2.06 µM and the TGI came to 23.8 µM.

Take `O=S(=O)(c1ccc(NC(=S)NCc2cccnc2)cc1)N1CCCCC1`: the GI50 is 36.8 µM and the TGI is over 100 µM.

In the case of `COc1cccc(C2=C(c3cn(C)c4ccccc34)C(=O)NC2=O)c1`, the GI50 is 5.91 µM and the TGI is over 25 µM.

Take `O=C1C(Cl)=C(N/N=c2/[nH][nH]/c(=N/NC3=C(Cl)C(=O)c4ccccc4C3=O)c3ccccc23)C(=O)c2ccccc21`: the GI50 was 9.97 µM and the TGI is 59.1 µM.

A further experiment concerns T-47D breast. Description: NCI tumour cell line growth inhibition, 48 h.
Regarding `CCCN(Cc1ccc(F)cc1)c1ccc(CO)c(Cl)c1`, the GI50 was 0.119 µM and the TGI was 0.733 µM.

`Cc1ccc2[nH]c(C(=O)NN3C(=O)CSC34CCCCC4C)c(-c3ccccc3)c2c1` (stereo not drawn): the GI50 was 16.3 µM and the TGI was found to be 40 µM.

For the compound `CCN=C1C=CC(=C(c2ccc(N(C)C)cc2)c2ccc(N(C)C)cc2)c2ccccc21`, the GI50 was 0.0567 µM and the TGI was 1.52 µM.

As to `CN(C)CCCNC(=O)c1cc(NC(=O)CCNS(=O)(=O)c2ccc3c(c2)C(=O)c2ccccc2C3=O)cn1C`, the GI50 was over 100 µM and the TGI is over 100 µM.

Turning to `CCc1c(C)[nH]c(/C=C2\N=C(c3ccc[nH]3)C=C2OC)c1C`, the GI50 is 0.545 µM and the TGI was 3.22 µM.

As for `CC(=O)OC1c2ccccc2CC2(OC(C)=O)c3ccccc3C12` (stereo not drawn), the TGI was over 100 µM.

Take `Nc1nc(/C=C\c2ccc([N+](=O)[O-])o2)nc(N2CCN(c3ccccc3)CC2)n1`: the GI50 was 13.5 µM and the TGI is 60 µM.

With `COc1ccc2c(c1)CCC1C2CCC2(C)C1CCC2(O)CNC(=O)CCCCC1CCSS1` (stereo not drawn), the GI50 was 3.27 µM and the TGI stood at 28.9 µM.

As to `CC12CCC(=O)C(O1)C1C(=O)c3cc4ccccc4cc3C(=O)C12` (stereo not drawn), the GI50 is 14.9 µM and the TGI came out at 39.4 µM.

As for `CC1(C)CCC2(C(=O)OC3OC(CO)C(O)C(O)C3O)CC[C@]3(C)C(=CCC4C5(C)CC[C@H](OC6OC(C(=O)O)C(O)C(O)C6O)C(C)(C)C5CCC43C)C2C1` (stereo partly drawn), the GI50 is 1.75 µM and the TGI amounted to 5.98 µM.

On to `CN(C)c1ccc2nc3ccc(=[N+](C)C)cc-3oc2c1`, for which the GI50 is 0.582 µM and the TGI amounted to 6.59 µM.

Regarding `O=S(=O)(c1ccc(NC(=S)NCc2cccnc2)cc1)N1CCCCC1`, the GI50 is 7.33 µM and the TGI is over 100 µM.

Regarding `COc1cccc(C2=C(c3cn(C)c4ccccc34)C(=O)NC2=O)c1`, the GI50 is 6.82 µM and the TGI is over 25 µM.

As to `C=C1C(=O)O[C@@H]2C1CC(=O)C(C)CC/C=C(\C)CCC[C@H](C)[C@H]2OC(C)=O` (stereo partly drawn), the GI50 was 20.4 µM and the TGI was 58.5 µM.

Regarding `CSc1nnc(CCSc2ccnc3c(C(F)(F)F)cccc23)o1`, the GI50 was 24.9 µM and the TGI is over 100 µM.

Consider `N#CC(C#N)=Cc1ccc(-c2ccc(-c3nc4ccccc4s3)cc2)o1`, for which the GI50 was 4.46 µM and the TGI came to 38.2 µM.

With `O=C1C(Cl)=C(N/N=c2/[nH][nH]/c(=N/NC3=C(Cl)C(=O)c4ccccc4C3=O)c3ccccc23)C(=O)c2ccccc21`, the GI50 is 6.71 µM and the TGI is 36.8 µM.

The test system of the next experiment is UO-31 renal. Description: NCI tumour cell line growth inhibition, 48 h.
For the compound `CCCN(Cc1ccc(F)cc1)c1ccc(CO)c(Cl)c1`, the GI50 is 2.65 µM and the TGI turned out to be 13.9 µM.

Regarding `Cc1ccc2[nH]c(C(=O)NN3C(=O)CSC34CCCCC4C)c(-c3ccccc3)c2c1` (stereo not drawn), the GI50 is 15.5 µM and the TGI was determined as 30.9 µM.

Consider `CCN=C1C=CC(=C(c2ccc(N(C)C)cc2)c2ccc(N(C)C)cc2)c2ccccc21`, for which the GI50 was 0.196 µM and the TGI is 0.663 µM.

In the case of `CN(C)CCCNC(=O)c1cc(NC(=O)CCNS(=O)(=O)c2ccc3c(c2)C(=O)c2ccccc2C3=O)cn1C`, the GI50 was over 100 µM and the TGI is over 100 µM.

In the case of `CCc1c(C)[nH]c(/C=C2\N=C(c3ccc[nH]3)C=C2OC)c1C`, the GI50 was 0.176 µM and the TGI was 0.591 µM.

`CC(=O)OC1c2ccccc2CC2(OC(C)=O)c3ccccc3C12` (stereo not drawn) yielded a TGI of over 100 µM.

For the compound `Nc1nc(/C=C\c2ccc([N+](=O)[O-])o2)nc(N2CCN(c3ccccc3)CC2)n1`, the GI50 is 13.6 µM and the TGI stood at 39.8 µM.

In the case of `COc1ccc2c(c1)CCC1C2CCC2(C)C1CCC2(O)CNC(=O)CCCCC1CCSS1` (stereo not drawn), the GI50 was 24.9 µM and the TGI is over 100 µM.

`CC12CCC(=O)C(O1)C1C(=O)c3cc4ccccc4cc3C(=O)C12` (stereo not drawn): the GI50 was 42.5 µM and the TGI was over 100 µM.

Regarding `CC1(C)CCC2(C(=O)OC3OC(CO)C(O)C(O)C3O)CC[C@]3(C)C(=CCC4C5(C)CC[C@H](OC6OC(C(=O)O)C(O)C(O)C6O)C(C)(C)C5CCC43C)C2C1` (stereo partly drawn), the GI50 is 12.7 µM and the TGI was 31.8 µM.

Turning to `CN(C)c1ccc2nc3ccc(=[N+](C)C)cc-3oc2c1`, the GI50 was 12.8 µM and the TGI came out at 89.3 µM.

For `O=S(=O)(c1ccc(NC(=S)NCc2cccnc2)cc1)N1CCCCC1`, the GI50 is 21.5 µM and the TGI was over 100 µM.

Consider `COc1cccc(C2=C(c3cn(C)c4ccccc34)C(=O)NC2=O)c1`, for which the GI50 is 10.8 µM and the TGI was over 25 µM.

On to `C=C1C(=O)O[C@@H]2C1CC(=O)C(C)CC/C=C(\C)CCC[C@H](C)[C@H]2OC(C)=O` (stereo partly drawn), for which the GI50 was 11.9 µM and the TGI stood at 29.5 µM.

Regarding `CSc1nnc(CCSc2ccnc3c(C(F)(F)F)cccc23)o1`, the GI50 was 86.8 µM and the TGI was over 100 µM.

`N#CC(C#N)=Cc1ccc(-c2ccc(-c3nc4ccccc4s3)cc2)o1`: the GI50 was 20.3 µM and the TGI was over 100 µM.

For `O=C1C(Cl)=C(N/N=c2/[nH][nH]/c(=N/NC3=C(Cl)C(=O)c4ccccc4C3=O)c3ccccc23)C(=O)c2ccccc21`, the GI50 was 12.3 µM and the TGI was 25.9 µM.

Another experiment has as its system KM12 colon. Briefly: NCI tumour cell line growth inhibition, 48 h.
As to `CCCN(Cc1ccc(F)cc1)c1ccc(CO)c(Cl)c1`, the GI50 was 13 µM and the TGI amounted to 27.3 µM.

Turning to `Cc1ccc2[nH]c(C(=O)NN3C(=O)CSC34CCCCC4C)c(-c3ccccc3)c2c1` (stereo not drawn), the GI50 is 14.9 µM and the TGI came to 34.7 µM.

Turning to `CCN=C1C=CC(=C(c2ccc(N(C)C)cc2)c2ccc(N(C)C)cc2)c2ccccc21`, the GI50 is 0.0383 µM and the TGI is 0.18 µM.

As for `CN(C)CCCNC(=O)c1cc(NC(=O)CCNS(=O)(=O)c2ccc3c(c2)C(=O)c2ccccc2C3=O)cn1C`, the GI50 is over 100 µM and the TGI was over 100 µM.

Turning to `CCc1c(C)[nH]c(/C=C2\N=C(c3ccc[nH]3)C=C2OC)c1C`, the GI50 was 0.0944 µM and the TGI turned out to be 5.26 µM.

Consider `CC(=O)OC1c2ccccc2CC2(OC(C)=O)c3ccccc3C12` (stereo not drawn), for which the TGI is over 100 µM.

Turning to `Nc1nc(/C=C\c2ccc([N+](=O)[O-])o2)nc(N2CCN(c3ccccc3)CC2)n1`, the GI50 is 11.5 µM and the TGI worked out at 62.9 µM.

Turning to `COc1ccc2c(c1)CCC1C2CCC2(C)C1CCC2(O)CNC(=O)CCCCC1CCSS1` (stereo not drawn), the GI50 is 2.26 µM and the TGI is over 100 µM.

In the case of `CC12CCC(=O)C(O1)C1C(=O)c3cc4ccccc4cc3C(=O)C12` (stereo not drawn), the GI50 was 12.5 µM and the TGI was 29.5 µM.

In the case of `CC1(C)CCC2(C(=O)OC3OC(CO)C(O)C(O)C3O)CC[C@]3(C)C(=CCC4C5(C)CC[C@H](OC6OC(C(=O)O)C(O)C(O)C6O)C(C)(C)C5CCC43C)C2C1` (stereo partly drawn), the GI50 was 2.08 µM and the TGI stood at 9.47 µM.

`CN(C)c1ccc2nc3ccc(=[N+](C)C)cc-3oc2c1`: the GI50 was 1.18 µM and the TGI was over 100 µM.

For the compound `COc1cccc(C2=C(c3cn(C)c4ccccc34)C(=O)NC2=O)c1`, the GI50 is 8.45 µM and the TGI is over 25 µM.

Turning to `C=C1C(=O)O[C@@H]2C1CC(=O)C(C)CC/C=C(\C)CCC[C@H](C)[C@H]2OC(C)=O` (stereo partly drawn), the GI50 is 12.8 µM and the TGI came out at 29.1 µM.

`CSc1nnc(CCSc2ccnc3c(C(F)(F)F)cccc23)o1`: the GI50 was over 100 µM and the TGI is over 100 µM.

Consider `N#CC(C#N)=Cc1ccc(-c2ccc(-c3nc4ccccc4s3)cc2)o1`, for which the GI50 is 16.9 µM and the TGI was over 100 µM.

`O=C1C(Cl)=C(N/N=c2/[nH][nH]/c(=N/NC3=C(Cl)C(=O)c4ccccc4C3=O)c3ccccc23)C(=O)c2ccccc21`: the GI50 is 5.16 µM and the TGI is 20.7 µM.

For the origin of these results see PubChem BioAssay (NCI).
